According to BindingDB's records for doi:10.1016/s0968-0896(99)00215-1 (Parke-Davis Pharmaceutical Research, 1999):

Molecular target: T1, Dimer of Gag-Pol polyprotein [489-587] (Human immunodeficiency virus 1, UniProt P12497)
T1 construct: 489-587
Experiment: Protease Inhibition Assay
Protocol: For determination of IC50 values, HIV-1 protease was added to assay buffer containing inhibitor and the substrate (H-His-Lys-Ala-Arg-Val-Leu- (p-NO2) Phe-Glu-Ala-norleucine-Ser-NH2). The Leu- (p-NO2) Phe bond of the substrate was cleaved by the enzyme, and the substrate and products were separated by reversed-phase HPLC. Absorbance was measured at 220 nm, peak areas were determined, and percentage conversion to product was calculated.

Row | Compound | IC50 | IC50 (pH 6.2, 37 °C) | also measured
1 | Cc1cc(SC2C(=O)CC(CCc3ccccc3)(C(C)C)OC2=O)c(C(C)(C)C)cc1OCCO (configuration not stated) [3-{[2-tert-butyl-4-(2-hydroxyethoxy)-5-methylphenyl]sulfanyl}-4-hydroxy-6-(2-phenylethyl)-6-(propan-2-yl)-5,6-dihydro-2H-pyran-2-one] | 2.6 nM |  | 
2 | Cc1ccc(C(C)(C)C)c(SC2C(=O)CC(CCc3ccc(O)cc3)(C3CCCC3)OC2=O)c1 (configuration not stated) [(3-(2-tert-Butyl-5-methyl-phenylsulfanyl)-4-hydroxy-6-[2-(4-hydroxy-phenyl)-ethyl]-6-cyclopentyl-5,6-dihydro-pyran-2-one] |  | 7.2 nM | 
3 | Cc1cc(SC2C(=O)C[C@](CCc3ccc(N)cc3)(C(C)C)OC2=O)c(C(C)(C)C)cc1CO (stereo partly drawn) [(6R)-6-[2-(4-aminophenyl)ethyl]-3-{[2-tert-butyl-4-(hydroxymethyl)-5-methylphenyl]sulfanyl}-4-hydroxy-6-(propan-2-yl)-5,6-dihydro-2H-pyran-2-one] |  |  | Ki: 25 nM
4 | Cc1cc(SC2C(=O)CC(CCc3ccc(O)cc3)(C3CC3)OC2=O)c(C(C)(C)C)cc1OCCO (configuration not stated) [(3-(2-tert-Butyl-4-(2-hydroxy-ethoxy)-5-methyl-phenylsulfanyl)-6-cyclopropyl-4-hydroxy-6-[2-(4-hydroxy-phenyl)-ethyl]-5,6-dihydro-pyran-2-one] | 3.8 nM |  | 
5 | Cc1cc(SC2C(=O)CC(CCc3ccc(O)cc3)(C3CCCC3)OC2=O)c(C(C)(C)C)cc1OCCO (configuration not stated) [3-{[2-tert-butyl-4-(2-hydroxyethoxy)-5-methylphenyl]sulfanyl}-6-cyclopentyl-4-hydroxy-6-[2-(4-hydroxyphenyl)ethyl]-5,6-dihydro-2H-pyran-2-one] | 2.8 nM |  | 
6 | CCCC1(CCc2ccc(O)cc2)CC(=O)C(Sc2cc(C)c(CO)cc2C(C)(C)C)C(=O)O1 (configuration not stated) [3-{[2-tert-butyl-4-(hydroxymethyl)-5-methylphenyl]sulfanyl}-4-hydroxy-6-[2-(4-hydroxyphenyl)ethyl]-6-propyl-5,6-dihydro-2H-pyran-2-one] |  | 2.6 nM | 
7 | Cc1cc(SC2C(=O)CC(CCc3ccc(N)cc3)(C(C)C)OC2=O)c(C(C)(C)C)cc1CO (configuration not stated) [6-[2-(4-aminophenyl)ethyl]-3-{[2-tert-butyl-4-(hydroxymethyl)-5-methylphenyl]sulfanyl}-4-hydroxy-6-(propan-2-yl)-5,6-dihydro-2H-pyran-2-one] |  |  | Ki: 0.43 nM
8 | Cc1cc(SC2C(=O)CC(CCc3ccc(O)cc3)(C3CCCCC3)OC2=O)c(C(C)(C)C)cc1O (configuration not stated) [3-(2-tert-Butyl-4-hydroxy-5-methyl-phenylsulfanyl)-6-cyclohexyl-4-hydroxy-6-[2-(4-hydroxy-phenyl)-ethyl]-5,6-dihydro-pyran-2-one] |  | 2.9 nM | 
9 | CCCCCC1(CCc2ccc(O)cc2)CC(=O)C(Sc2cc(C)c(CO)cc2C(C)(C)C)C(=O)O1 (configuration not stated) [3-{[2-tert-butyl-4-(hydroxymethyl)-5-methylphenyl]sulfanyl}-4-hydroxy-6-[2-(4-hydroxyphenyl)ethyl]-6-pentyl-5,6-dihydro-2H-pyran-2-one] |  | 5.9 nM | 
10 | Cc1cc(SC2C(=O)CC(CCc3ccccc3)(c3ccccc3)OC2=O)c(C(C)(C)C)cc1CO (configuration not stated) [PD 178390 Analog 38] | 6.5 nM |  | 
11 | CCCC1(CCc2ccc(O)cc2)CC(=O)C(Sc2cc(C)c(OCCO)cc2C(C)(C)C)C(=O)O1 (configuration not stated) [3-{[2-tert-butyl-4-(2-hydroxyethoxy)-5-methylphenyl]sulfanyl}-4-hydroxy-6-[2-(4-hydroxyphenyl)ethyl]-6-propyl-5,6-dihydro-2H-pyran-2-one] | 6 nM |  | 
12 | Cc1ccc(C(C)(C)C)c(SC2C(=O)CC(CCc3ccc(O)cc3)OC2=O)c1 (configuration not stated) [3-[(2-tert-butyl-5-methylphenyl)sulfanyl]-4-hydroxy-6-[2-(4-hydroxyphenyl)ethyl]-5,6-dihydro-2H-pyran-2-one] |  | 338 nM | 
13 | Cc1cc(SC2C(=O)CC(CCc3ccc(O)cc3)(C(C)C)OC2=O)c(C(C)(C)C)cc1CO (configuration not stated) [3-{[2-tert-butyl-4-(hydroxymethyl)-5-methylphenyl]sulfanyl}-4-hydroxy-6-[2-(4-hydroxyphenyl)ethyl]-6-(propan-2-yl)-5,6-dihydro-2H-pyran-2-one] |  |  | Ki (pH 6.2, 37 °C): 0.17 nM
14 | Cc1cc(SC2C(=O)C[C@@](CCc3ccccc3)(C(C)C)OC2=O)c(C(C)(C)C)cc1CO (stereo partly drawn) [(6S)-3-{[2-tert-butyl-4-(hydroxymethyl)-5-methylphenyl]sulfanyl}-4-hydroxy-6-(2-phenylethyl)-6-(propan-2-yl)-5,6-dihydro-2H-pyran-2-one] |  |  | Ki: 0.09 nM
15 | Cc1cc(SC2C(=O)CC(CCc3ccc(O)cc3)(CC(C)C)OC2=O)c(C(C)(C)C)cc1CO (configuration not stated) [3-{[2-tert-butyl-4-(hydroxymethyl)-5-methylphenyl]sulfanyl}-4-hydroxy-6-[2-(4-hydroxyphenyl)ethyl]-6-(2-methylpropyl)-5,6-dihydro-2H-pyran-2-one] |  | 3.3 nM | 
16 | CCCCCC1(CCc2ccc(O)cc2)CC(=O)C(Sc2cc(C)c(OCCO)cc2C(C)(C)C)C(=O)O1 (configuration not stated) [3-{[2-tert-butyl-4-(2-hydroxyethoxy)-5-methylphenyl]sulfanyl}-4-hydroxy-6-[2-(4-hydroxyphenyl)ethyl]-6-pentyl-5,6-dihydro-2H-pyran-2-one] | 2.9 nM |  | 

Row | Compound | IC50 | IC50 (pH 6.2, 37 °C) | also measured
17 | Cc1ccc(C(C)(C)C)c(SC2C(=O)CC(CCc3ccccc3)(C(C)C)OC2=O)c1 (configuration not stated) [3-[(2-tert-butyl-5-methylphenyl)sulfanyl]-4-hydroxy-6-(2-phenylethyl)-6-(propan-2-yl)-5,6-dihydro-2H-pyran-2-one] | 1.1 nM |  | 
18 | Cc1cc(SC2C(=O)CC(CCc3ccc(O)cc3)(C(C)C)OC2=O)c(C(C)(C)C)cc1OCCO (configuration not stated) [(3-(2-tert-Butyl-4-(2-hydroxy-ethoxy)-5-methyl-phenylsulfanyl)-4-hydroxy-6-[2-(4-hydroxy-phenyl)-ethyl]-6-isopropyl-5,6-dihydro-pyran-2-one] | 2.8 nM |  | 
19 | COCOCCOc1cc(C(C)(C)C)c(SC2C(=O)CC(C)(CCc3ccc(O)cc3)OC2=O)cc1C (configuration not stated) [3-({2-tert-butyl-4-[2-(methoxymethoxy)ethoxy]-5-methylphenyl}sulfanyl)-4-hydroxy-6-[2-(4-hydroxyphenyl)ethyl]-6-methyl-5,6-dihydro-2H-pyran-2-one] | 20 nM |  | 
20 | Cc1cc(SC2C(=O)CC(CCc3ccc(O)cc3)(C(C)C)OC2=O)c(C(C)(C)C)cc1O (configuration not stated) [PD 178390 Analog 23] |  |  | Ki (pH 6.2, 37 °C): 0.03 nM
21 | CCCC1(CCc2ccc(O)cc2)CC(=O)C(Sc2cc(C)ccc2C(C)(C)C)C(=O)O1 (configuration not stated) [3-[(2-tert-butyl-5-methylphenyl)sulfanyl]-4-hydroxy-6-[2-(4-hydroxyphenyl)ethyl]-6-propyl-5,6-dihydro-2H-pyran-2-one] |  | 19 nM | 
22 | Cc1cc(SC2C(=O)CC(CCc3ccc(O)cc3)(C3CCCC3)OC2=O)c(C(C)(C)C)cc1CO (configuration not stated) [3-{[2-tert-butyl-4-(hydroxymethyl)-5-methylphenyl]sulfanyl}-6-cyclopentyl-4-hydroxy-6-[2-(4-hydroxyphenyl)ethyl]-5,6-dihydro-2H-pyran-2-one] |  | 3.1 nM | 
23 | Cc1cc(SC2C(=O)CC(CCc3ccccc3)(C(C)C)OC2=O)c(C(C)(C)C)cc1CO (configuration not stated) [3-{[2-tert-butyl-4-(hydroxymethyl)-5-methylphenyl]sulfanyl}-4-hydroxy-6-(2-phenylethyl)-6-(propan-2-yl)-5,6-dihydro-2H-pyran-2-one] | 2.2 nM |  | 
24 | Cc1cc(SC2C(=O)CC(CCc3ccc(O)cc3)(C3CCC3)OC2=O)c(C(C)(C)C)cc1CO (configuration not stated) [3-{[2-tert-butyl-4-(hydroxymethyl)-5-methylphenyl]sulfanyl}-6-cyclobutyl-4-hydroxy-6-[2-(4-hydroxyphenyl)ethyl]-5,6-dihydro-2H-pyran-2-one] |  | 2.2 nM | 
25 | Cc1cc(SC2C(=O)C[C@@](CCc3ccc(N)cc3)(C(C)C)OC2=O)c(C(C)(C)C)cc1CO (stereo partly drawn) [(6S)-6-[2-(4-aminophenyl)ethyl]-3-{[2-tert-butyl-4-(hydroxymethyl)-5-methylphenyl]sulfanyl}-4-hydroxy-6-(propan-2-yl)-5,6-dihydro-2H-pyran-2-one] |  |  | Ki: 0.11 nM
26 | Cc1cc(SC2C(=O)C[C@](CCc3ccc(O)cc3)(C(C)C)OC2=O)c(C(C)(C)C)cc1CO (some centres not stated) [(3-(2-tert-Butyl-4-hydroxymethyl-5-methyl-phenylsulfanyl)-4-hydroxy-6-[2-(4-hydroxypheny)-ethyl]-6-isopropyl-5,6-dihydro-pyran-2-one] |  |  | Ki: 31 nM
27 | Cc1ccc(C(C)(C)C)c(SC2C(=O)CC(C)(CCc3ccc(O)cc3)OC2=O)c1 (configuration not stated) [(3-(2-tert-Butyl-5-methyl-phenylsulfanyl)-4-hydroxy-6-[2-(4-hydroxy-phenyl)-ethyl]-6-methyl-5,6-dihydro-pyran-2-one] |  | 9.5 nM | 
28 | Cc1ccc(C(C)(C)C)c(SC2C(=O)CC(CCc3ccc(O)cc3)(C(C)C)OC2=O)c1 (configuration not stated) [(3-(2-tert-Butyl-5-methyl-phenylsulfanyl)-4-hydroxy-6-[2-(4-hydroxy-phenyl)-ethyl]-6-isopropyl-5,6-dihydro-pyran-2-one] |  | 4.6 nM | 
29 | Cc1cc(SC2C(=O)CC(CCc3ccc(N)cc3)(CC(C)C)OC2=O)c(C(C)(C)C)cc1CO (configuration not stated) [6-[2-(4-aminophenyl)ethyl]-3-{[2-tert-butyl-4-(hydroxymethyl)-5-methylphenyl]sulfanyl}-4-hydroxy-6-(2-methylpropyl)-5,6-dihydro-2H-pyran-2-one] | 2.9 nM |  | 
30 | Cc1cc(SC2C(=O)CC(CCc3ccc(O)cc3)(C3CC3)OC2=O)c(C(C)(C)C)cc1CO (configuration not stated) [(3-(2-tert-Butyl-4-hydroxymethyl-5-methyl-phenylsulfanyl)-6-cyclopropyl-4-hydroxy-6-[2-(4-hydroxy-phenyl)-ethyl]-5,6-dihydro-pyran-2-one] |  | 1 nM | 
31 | Cc1cc(SC2C(=O)C[C@@](CCc3ccc(O)cc3)(C(C)C)OC2=O)c(C(C)(C)C)cc1CO (stereo partly drawn) [(6S)-3-{[2-tert-butyl-4-(hydroxymethyl)-5-methylphenyl]sulfanyl}-4-hydroxy-6-[2-(4-hydroxyphenyl)ethyl]-6-(propan-2-yl)-5,6-dihydro-2H-pyran-2-one] |  |  | Ki: 0.09 nM
32 | CCCCC1(CCc2ccc(O)cc2)CC(=O)C(Sc2cc(C)c(CO)cc2C(C)(C)C)C(=O)O1 (configuration not stated) [6-butyl-3-{[2-tert-butyl-4-(hydroxymethyl)-5-methylphenyl]sulfanyl}-4-hydroxy-6-[2-(4-hydroxyphenyl)ethyl]-5,6-dihydro-2H-pyran-2-one] |  | 4.1 nM | 
